Results as given in ChEMBL document CHEMBL5500342, “Rational molecular design converting fascaplysin derivatives to potent broad-spectrum inhibitors against bacterial pathogens via targeting FtsZ” (Eur J Med Chem, 2024).
Calls of active or inactive are those of the source. The rule behind the calls is not given here.

Tests used:
[1] = target: T1, Cell division protein FtsZ (Escherichia coli K-12) (UniProt P0A9A6); assay: Induction of recombinant FtsZ polymerization in penicillin-susceptible Escherichia coli ATCC25922 assessed as stabilization of FtsZ polymers at 1 to 4 microg/ml incubated for 10 mins by light scattering assay; settings: filed as activator, dose 1-4 µg/ml
T1 sequence (whole entry): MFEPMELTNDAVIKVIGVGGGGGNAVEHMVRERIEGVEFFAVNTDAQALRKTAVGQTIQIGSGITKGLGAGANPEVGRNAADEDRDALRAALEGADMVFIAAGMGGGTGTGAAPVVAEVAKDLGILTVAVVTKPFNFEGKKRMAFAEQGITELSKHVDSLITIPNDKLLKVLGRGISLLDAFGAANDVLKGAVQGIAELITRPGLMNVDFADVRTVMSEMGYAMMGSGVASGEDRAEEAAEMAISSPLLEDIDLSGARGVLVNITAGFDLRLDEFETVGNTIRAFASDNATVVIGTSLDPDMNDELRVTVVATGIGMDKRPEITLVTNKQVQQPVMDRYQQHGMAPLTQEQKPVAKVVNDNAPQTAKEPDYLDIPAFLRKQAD

[2] = target: T2, Cell division protein FtsZ (Staphylococcus aureus) (UniProt P0A031); assay: Effect on FtsZ GTPase activity in methicillin-resistant Staphylococcus aureus ATCC43300 upto 8 microg/ml incubated for 30 mins by malachite green phosphate based assay; settings: dose <= 8.0 µg/ml
T2 sequence (whole entry): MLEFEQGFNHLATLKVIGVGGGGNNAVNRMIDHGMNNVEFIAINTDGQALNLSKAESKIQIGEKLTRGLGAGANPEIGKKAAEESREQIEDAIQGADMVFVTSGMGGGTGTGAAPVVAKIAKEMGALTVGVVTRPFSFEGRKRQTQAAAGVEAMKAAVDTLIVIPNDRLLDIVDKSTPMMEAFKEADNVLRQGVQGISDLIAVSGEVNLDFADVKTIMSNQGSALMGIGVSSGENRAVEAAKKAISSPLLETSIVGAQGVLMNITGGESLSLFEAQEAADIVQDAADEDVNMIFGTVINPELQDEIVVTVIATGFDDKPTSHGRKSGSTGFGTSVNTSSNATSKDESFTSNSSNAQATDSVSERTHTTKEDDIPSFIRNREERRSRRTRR

Cell membrane [3] = assay: Disruption of cell membrane integrity in penicillin-susceptible Escherichia coli ATCC25922 assessed as cell deformation at 4 times of MIC incubated for 2 hrs by transmission electron microscopic analysis; type: cell membranes
Cell membrane [4] = assay: Disruption of cell membrane integrity in methicillin-resistant Staphylococcus aureus ATCC43300 assessed as appearance of striated structures at 4 times of MIC incubated for 2 hrs by scanning electron microscopic analysis; type: cell membranes
Escherichia coli [5] = assay: Induction of morphological changes in penicillin-susceptible Escherichia coli ATCC25922 assessed as cell elongation at 0.5 times of MIC incubated for 4 hrs by optical microscopic analysis; type: functional, organism-based
[6] = Selectivity ratio of MBC for bactericidal activity against penicillin-susceptible Escherichia coli ATCC25922 to MIC for antibacterial activity against penicillin-susceptible Escherichia coli ATCC25922; type: functional
[7] = target: T2, Cell division protein FtsZ (Staphylococcus aureus); assay: Induction of FtsZ polymerization in methicillin-resistant Staphylococcus aureus ATCC43300 assessed as increase in size of assembly at 4 microg/ml preincubated for 10 mins followed by GTP addition and measured after 15 mins by transmission electron microscopic analysis; settings: filed as activator, dose 4.0 µg/ml, time 25.0 min
[8] = target: T1, Cell division protein FtsZ (Escherichia coli K-12); assay: Induction of FtsZ polymerization in penicillin-susceptible Escherichia coli ATCC25922 assessed as bundling of FtsZ protofilaments at 4 microg/ml preincubated for 10 mins followed by GTP addition and measured after 15 mins by transmission electron microscopic analysis; settings: filed as activator, dose 4.0 µg/ml, time 25.0 min
Escherichia coli [9] = assay: Antibacterial activity against penicillin-susceptible Escherichia coli ATCC25922 assessed as log reduction in bacterial count measured after 8 hrs by time kill kinetics assay; type: functional, organism-based
[10] = target: T1, Cell division protein FtsZ (Escherichia coli K-12); assay: Induction of recombinant FtsZ polymerization in penicillin-susceptible Escherichia coli ATCC25922 assessed as stabilization of FtsZ bundles at 1 to 4 microg/ml incubated for 10 mins by light scattering assay; settings: filed as activator, dose 1-4 µg/ml
Pseudomonas aeruginosa = assay: Antibacterial activity against Pseudomonas aeruginosa BNCC337940 assessed as inhibition of bacterial growth incubated for 18 hrs by CLSI protocol based microbroth dilution method; type: functional
Staphylococcus aureus [11] = assay: Antibacterial activity against methicillin-resistant Staphylococcus aureus ATCC43300 assessed as inhibition of bacterial growth incubated for 18 hrs by CLSI protocol based microbroth dilution method; type: functional
Escherichia coli [12] = assay: Antibacterial activity against penicillin-susceptible Escherichia coli ATCC25922 assessed as inhibition of bacterial growth incubated for 18 hrs by CLSI protocol based microbroth dilution method; type: functional
Staphylococcus aureus [13] = assay: Bactericidal activity against methicillin-resistant Staphylococcus aureus ATCC43300 incubated for 24 hrs by CLSI protocol based microbroth dilution method; type: functional
Cell membrane [14] = assay: Disruption of cell membrane integrity in methicillin-resistant Staphylococcus aureus ATCC43300 assessed as appearance of collapsed cells at 4 times of MIC incubated for 2 hrs by transmission electron microscopic analysis; type: cell membranes
Bacillus subtilis = assay: Induction of morphological changes in Bacillus subtilis BNCC336690 assessed as cell elongation by measuring cell length at 0.5 times of MIC incubated for 4 hrs by optical microscopic analysis; type: functional
Staphylococcus aureus [15] = assay: Antibacterial activity against methicillin-resistant Staphylococcus aureus ATCC43300 assessed as log reduction in bacterial count measured within 0.5 hrs by time kill kinetics assay; type: functional
Cell membrane [16] = assay: Disruption of cell membrane integrity in penicillin-susceptible Escherichia coli ATCC25922 assessed as scattered leakage of content at 4 times of MIC incubated for 2 hrs by transmission electron microscopic analysis; type: cell membranes
Staphylococcus aureus [17] = assay: Inhibition of biofilm formation in methicillin-resistant Staphylococcus aureus ATCC43300 assessed as decrease in biofilm formation rate at higher concentration incubated for 24 hrs by crystal violet staining based analysis relative to control; type: functional; parameters: scale not given: the % may be the effect or the level left
Escherichia coli [18] = assay: Antibacterial activity against penicillin-susceptible Escherichia coli ATCC25922 assessed as reduction in bacterial growth at 0.5 times of MIC incubated for 18 to 24 hrs and measured after 25 passages by drug resistance assay; type: functional, organism-based
Staphylococcus aureus [19] = assay: Inhibition of biofilm formation in methicillin-resistant Staphylococcus aureus ATCC43300 assessed as decrease in biofilm formation rate at 6.25 microg/ml incubated for 24 hrs by crystal violet staining based analysis relative to control; type: functional; parameters: scale not given: the % may be the effect or the level left; settings: dose 6.25 µg/ml
Escherichia coli [20] = assay: Antibacterial activity against penicillin-susceptible Escherichia coli ATCC25922 assessed as log reduction in bacterial count by time kill kinetics assay; type: functional
Escherichia coli [21] = assay: Antibacterial activity against penicillin-susceptible Escherichia coli ATCC25922 assessed as log reduction in bacterial count at 4 times of MIC measured after 1 hrs by time kill kinetics assay; type: functional
Escherichia coli [22] = assay: Antibacterial activity against penicillin-susceptible Escherichia coli ATCC25922 assessed as log reduction in bacterial count at 1 times of MIC measured after 2 hrs by time kill kinetics assay; type: functional, organism-based
Cell membrane [23] = assay: Disruption of cell membrane integrity in methicillin-resistant Staphylococcus aureus ATCC43300 assessed as leakage of intracellular contents at 4 times of MIC incubated for 2 hrs by transmission electron microscopic analysis; type: cell membranes

| Compound | Activity [1] | Activity [2] | Activity (Cell membrane [3]) | Activity (Cell membrane [4]) | Activity (Escherichia coli [5]) | Selectivity ratio [6] | Activity [7] | Activity [8] | Activity [10] | MIC (Pseudomonas aeruginosa) [µg/mL] | MIC (Staphylococcus aureus [11]) [µg/mL] | MIC (Escherichia coli [12]) [µg/mL] | MBC (Staphylococcus aureus [13]) [µg/mL] | Activity (Cell membrane [14]) | Activity (Bacillus subtilis) [um] | Activity (Staphylococcus aureus [15]) [log10CFU/ml] | also measured |
| --- | --- | --- | --- | --- | --- | --- | --- | --- | --- | --- | --- | --- | --- | --- | --- | --- | --- |
| O=C1c2ccccc2-[n+]2ccc3c([nH]c4ccc(-c5ccccc5F)cc43)c21.[Cl-] | Active | inactive | Active | Active | Active | 1 | Active | Active | Active | > 200 | 0.195 | 6.25 | 0.195 | Active | >50 | >3 | Activity (Escherichia coli [9]): inactive |
| O=C1c2ccccc2-[n+]2ccc3c([nH]c4ccc(-c5ccccc5Cl)cc43)c21.[Cl-] | Active | inactive | Active | Active | Active | 4 | Active | Active | Active | > 200 | 1.56 | 12.5 | 1.56 | Active | >50 | >3 | Activity (Cell membrane [16]): Active; Activity (Staphylococcus aureus [17]): 15%; Activity (Escherichia coli [18]): Active; Activity (Staphylococcus aureus [19]): 49%; Activity (Escherichia coli [20]): 1 log10CFU/ml |
| O=C1c2ccccc2-[n+]2ccc3c([nH]c4ccc(-c5ccccc5C(F)(F)F)cc43)c21.[Cl-] | Active | inactive | Active | Active | Active | 4 | Active | Active | Active | > 200 | 1.56 | 12.5 | 1.56 |  | >50 | >3 | Activity (Escherichia coli [21]): 3 log10CFU/ml; Activity (Escherichia coli [22]): inactive; Activity (Cell membrane [23]): Active |
